Among the data in publication PMC2978705, “Thermodynamic Additivity of Sequence Variations: An Algorithm for Creating High Affinity Peptides Without Large Libraries or Structural Information” (PLoS ONE, 2010) are Kd, koff and kon values, retold here.

Where no end group is shown, it is not given here.

What is called Kd is a measure of binding affinity in units of concentration. In general, koff refers to a measure of how fast the partners let go of each other. For orientation: kon means a measure of how fast the partners come together. The low end stands for slow association, the high end for fast association.

What all share (assay type): binding
One assay concerns the target transferrin (Homo sapiens, UniProt P02787). In words: Equilibrium SPR affinity of TRF26 peptides for immobilized transferrin. To be noted: peptide concentration series.
The target of assay [1] is T1, TNF-α (Homo sapiens, UniProt P01375). Kind of assay: Equilibrium SPR affinity of peptides for captured TNF-α. On the procedure:
Point-variant libraries were prepared in 96-well stock plates as described in the supporting information. From the stock plate, peptides were diluted to 50 µM or 10 µM in Biacore HBS-EP buffer (GE Healthcare, Piscataway, NJ) containing 1 mg/ml carboxymethyl-dextran (Sigma-Aldrich, St. Louis, MO) to reduce non-specific binding to the CM-5 SPR chip surface. Biotinylated TNF-α was captured on a neutravidin coated Biacore CM-5 chip (GE Healthcare, Piscataway, NJ) at different levels on spots 1, 2, 4, and 5 across all four flow cells corresponding to a low to moderate Rmax range of 40-200 RU. Spot 3 on all flow cells contained only immobilized neutravidin and served as a reference spot.
Responses were normalized to the predicted Rmax so that results from different TNF-α capture levels could be directly compared.
Sequences containing multiple enhancing point variations were synthesized using standard solid-phase synthesis and purified. Multiple variant affinities were determined with the same protocol used for point-variant affinities.
Peptide binding energies and dissociation constants (Kd) were calculated separately as a mean and standard error of all replicate measurements.
Text S1: Experimental Details […]
Point-Variant Libraries. Point-variant libraries were ordered in PEPScreen® 96 -vial format from Sigma-Genosys (St. Louis, MO). The purity of each peptide in the library was […]
was dissolved in HBS-N buffer to an approximate 2 mg/ml concentration, each vial was centrifuged to spin insoluble peptide to the bottom of the vial. Supernatant was collected from each vial and transferred to a 96-well plate, peptide supernatant concentrations in each well was measured using A280 absorbance and a predicted molar extinction coefficient (ε280) based on the specific peptide sequence. Based on the supernatant concentrations, all the […]
plate(s). All SPR screens of the point-variants were done using dilutions from this stock […]
SPR Assays. SPR Chip Preparation. Unless otherwise noted, SPR immobilization was done on a Biacore A100 SPR system (GE Healthcare, Piscataway, NJ). A standard coupling protocol was employed to immobilize a neutravidin capture surface via exposed primary amines. The immobilization was performed at 25 °C using Sodium Acetate (10 mM in 150 mM Sodium Chloride, pH 4.5) as the running buffer. Addressable spots 1, 2, 3 on each of the four flow cells of the CM-5 dextran SPR chip (GE Healthcare, Piscataway, NJ) were activated by a 10 minute injection of a freshly prepared 1:1 solution of 400 mM 1-ethyl-3-(3-dimethylaminopropyl)-carbodimide (EDC): 100 mM N-hydroxysuccimide (NHS) in […]

The target of assay [2] is T1, TNF-α. Kind of assay: Kinetic fits of SPR sensorgrams. The note with it: for Kd: from koff and kon of SPR kinetic fits; for koff / kon: kinetic fits of SPR sensorgrams across a concentration series. On the procedure:
Kinetic fits of the TNF1 and TNF1-opt SPR sensorgrams (Figure S7 in File S1) indicate that TNF1-opt has approximately an order of magnitude or more improvement in both on-rate (kon), and off-rate (koff), when compared to TNF1 (TNF1: koff = 1.6±0.5 s^−1, kon = 5.0±1.7×10^3 M^−1s^−1, TNF1-opt: koff = 0.2±0.02 s^−1 kon = 2.6±0.2×10^5 M^−1s^−1).
Figure S7. SPR sensorgram kinetic fits for TNF1 and TNF1-opt. On-rates (kon), off-rates (koff) and dissociation constants (Kd) shown were determined from kinetic fits of several sensorgrams across the same concentration series used in equilibrium binding response analysis.
(1 picture or pasted object on this page, not shown here)
In general terms: In SPR one partner is held on a chip, and binding of the other changes the refractive index at the surface.

Assay [3] deals with T1, TNF-α. In words: Solution-phase fluorescence anisotropy of labeled TNF1-opt with TNF-α. The note with it: peptide labeled at C-terminal cysteine fixed at 100 nM, TNF-α varied 80 nM to 10 µM, triplicate. On the procedure:
Figure 4 Equilibrium binding isotherms for TNF1-opt. Outer plot: SPR normalized replicate responses performed with TNF-α captured on the SPR chip surface and variable TNF-opt concentrations flowed over the surface. Inset plot: Solution-phase fluorescence anisotropy measurements performed in triplicate with TNF1-opt labeled at the C-terminal cysteine, TNF-opt concentration was fixed at 100 nM while TNF-α concentration was varied. TNF1-opt sensorgrams are available in Figure S5 in File S1, SPR binding isotherms for all enhanced variants tested are available in Figure S6 in File S1.
TNF1 and TNF4 Lead Generation from a […] Random Peptide Screen. Peptide Library and SPR Chip Preparation. Random 20-mer peptides were prepared in 384-well plates and diluted with Biacore HBS-EP buffer (GE Healthcare, Piscataway, NJ) containing 1 mg/ml carboxymethyl-dextran (Sigma-Aldrich, St. Louis, MO) to reduce non-specific binding to the CM-5 SPR chip surface. […]
TNF1-opt Fluorescence Polarization Affinity Characterization. Fluorescence anisotropy measurements were performed on a custom fluorimeter with an orthogonal optical configuration. […]
200 nM TNF-α and 200 nM E.coli lysate (calculated as a total protein concentration in the lysate) labeled with Alexa-555 and Alexa-647 (Invitrogen, Carlsbad, CA) respectively in PBST buffer containing 1% BSA was incubated with the microarray for 1 hour in a humidity chamber. […]
(In general: Polarisation of emitted light reports the rotation of a fluorescent probe.)

Setting [4] is: equilibrium SPR, TNF-α captured on chip, peptide concentration series, mean ± standard error of several replicates, SEM.
The mark [5] stands for this setting: equilibrium SPR binding responses, TNF-α.

Chain of transferrin (P02787 20-698, species assumed): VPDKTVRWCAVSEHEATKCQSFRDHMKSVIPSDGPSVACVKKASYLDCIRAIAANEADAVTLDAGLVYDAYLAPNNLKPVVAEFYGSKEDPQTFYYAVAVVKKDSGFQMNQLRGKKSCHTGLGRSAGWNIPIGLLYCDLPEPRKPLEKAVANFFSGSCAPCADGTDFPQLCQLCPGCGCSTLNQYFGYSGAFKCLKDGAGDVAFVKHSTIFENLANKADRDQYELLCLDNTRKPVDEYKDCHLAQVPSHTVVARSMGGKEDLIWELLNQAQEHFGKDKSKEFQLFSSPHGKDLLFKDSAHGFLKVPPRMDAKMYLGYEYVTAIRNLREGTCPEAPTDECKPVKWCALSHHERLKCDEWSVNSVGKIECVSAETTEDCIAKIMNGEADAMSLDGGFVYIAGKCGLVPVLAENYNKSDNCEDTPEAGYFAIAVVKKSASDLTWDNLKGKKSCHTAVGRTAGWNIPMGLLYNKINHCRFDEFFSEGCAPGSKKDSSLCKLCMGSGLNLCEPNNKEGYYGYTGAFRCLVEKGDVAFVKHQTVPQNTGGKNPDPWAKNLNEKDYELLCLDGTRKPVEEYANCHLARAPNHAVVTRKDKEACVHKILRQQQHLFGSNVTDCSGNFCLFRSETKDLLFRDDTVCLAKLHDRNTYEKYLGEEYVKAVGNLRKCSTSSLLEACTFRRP
T1 sequence (P01375 77-233 limits assumed): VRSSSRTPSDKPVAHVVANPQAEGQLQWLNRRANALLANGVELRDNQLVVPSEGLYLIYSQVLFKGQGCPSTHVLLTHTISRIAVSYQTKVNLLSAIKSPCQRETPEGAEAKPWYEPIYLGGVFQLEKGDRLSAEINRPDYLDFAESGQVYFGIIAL

For the sequence AHKVVPQRQIRFAYNRYGSC [Peptide H12F], the equilibrium dissociation constant (Kd) on transferrin was found to be 9.7 ± 1.6 µM.

FERYPLMMPWSFLQSRQGSC [Peptide D4Y] returned a Kd at TNF-α [1] (setting [4]) of 44 ± 4.8 µM.

For AHKVVYQRQIRFAYNRYGSC [P6Y+H12F], binding on transferrin was put at a Kd of 0.5 ± 0.1 µM.

For the sequence FERSYLKMPWSFLQSRQGSC [D4S+P5Y+M7K], at TNF-α [1] (setting [4]), binding was characterised by a dissociation constant (Kd) of 14 ± 1 µM.

For the sequence FERDPLKMPWSFLQSRQGSC [Peptide M7K], the Kd on TNF-α [1] (setting [4]) amounted to 57 ± 20 µM.

For AHKVVPQRQIRHAYNRYGSC [TRF26], on transferrin, the Kd was determined as 85 ± 14 µM.

Consider WGPSYAFKIYRFHQQSSGSC [TNF4-opt], for which the dissociation constant Kd on TNF-α [1] (setting [5]) worked out at 0.09 ± 0.02 µM; on TNF-α [2] (read-out: Kd resulting from rate constants) it was 0.13 ± 0.03 µM. This sequence also displayed a koff at TNF-α [2] of 0.0075 ± 8e-07 s⁻¹. The sequence also gave a kon at TNF-α [2] of 58000 ± 1.2e+08 M⁻¹ s⁻¹.

At TNF-α [1] (setting [4]), FERYPLMMPWKFLQSRQGSC [D4Y+S11K] yielded a Kd of 9.3 ± 0.7 µM.

Take FERSYLKMPWKFLQSRQGSC [TNF1-opt]: the Kd was 1.1 ± 0.2 µM at TNF-α [3], 1.6 ± 0.3 µM at TNF-α [1] (setting [4]) and 0.7 ± 0.02 µM on TNF-α [2] (read-out: Kd calculated from rate constants). Moreover, the koff at TNF-α [2] turned out to be 0.2 ± 0.02 s⁻¹. The same sequence came in with a kon on TNF-α [2] of 260000 ± 2e+09 M⁻¹ s⁻¹.

Consider YGPSDAFKIYRFHQQSSGSC [Peptide T10Y], for which, at TNF-α [1] (setting [5]), binding was put at a Kd of 0.31 ± 0.01 µM.

On TNF-α [1] (setting [5]), WGPSYAFKITRFHQQSSGSC [Y1W+D5Y] displayed a dissociation constant (Kd) of 0.2 ± 0.03 µM.

For the sequence FERDYLMMPWSFLQSRQGSC [Peptide P5Y], binding at TNF-α [1] (setting [4]) was characterised by a dissociation constant (Kd) of 58 ± 3.4 µM.

With FERDPLMMPWKFLQSRQGSC [Peptide S11K], the affinity on TNF-α [1] (setting [4]), expressed as Kd, was 40 ± 7.2 µM.

YGPSYAFKITRFHQQSSGSC [Peptide D5Y]: the Kd on TNF-α [1] (setting [5]) was 0.28 ± 0.04 µM.

FERDPLMMPWSFLQSRQGSC [TNF1]: the equilibrium dissociation constant (Kd) at TNF-α [1] (setting [4]) is 160 ± 19 µM. At TNF-α [2], this sequence yielded a koff of 1.6 ± 0.5 s⁻¹ and a kon of 5000 ± 1.7e+06 M⁻¹ s⁻¹.

As for FERYPLKMPWSFLQSRQGSC [D4Y+M7K], the affinity at TNF-α [1] (setting [4]), expressed as Kd, was 17 ± 1.9 µM.

The sequence FERDYLKMPWSFLQSRQGSC [P5Y+M7K] gave an equilibrium dissociation constant (Kd) at TNF-α [1] (setting [4]) of 27 ± 1.8 µM.

AHKVVYQRQIRHAYNRYGSC [Peptide P6Y] returned a Kd on transferrin of 8.6 ± 1.6 µM.

The sequence FERDYLMMPWKFLQSRQGSC [P5Y+S11K] yielded a Kd on TNF-α [1] (setting [4]) of 24 ± 1.4 µM.

On to YGPSDAFKITRFHQQSSGSC [TNF4], for which the Kd on TNF-α [1] (setting [4]) is 23 ± 3.5 µM.

For WGPSDAFKITRFHQQSSGSC [Peptide Y1W], at TNF-α [1] (setting [5]), the Kd turned out to be 0.38 ± 0.08 µM.

On TNF-α [1] (setting [4]), FERSYLMMPWKFLQSRQGSC [D4S+P5Y+S11K] registered a dissociation constant (Kd) of 7 ± 0.5 µM.
